Test results as given in article PMC4201332 (ACS Chemical Biology, 2014).

Assays:
hmGlu1 = hmGlu1 (Homo sapiens, UniProt Q13255); test: Calcium mobilization mGlu1 PAM potency assay; format: cell-based; details: for Emax: T-REx-293, read-out: hmGlu1 % Glu Max (±SEM)
hmGlu4 = hmGlu4 (Homo sapiens, UniProt Q14833); test: Calcium mobilization mGlu4 assay; format: cell-based
mGlu1 WT receptor [1] = target: T1, mGlu1 WT receptor (Homo sapiens, UniProt Q13255); format: cell-based; details: 10 μM PAM
mGlu1 WT receptor [2] = target: T1, mGlu1 WT receptor; format: cell-based
[3] = tested on: amphetamine-induced hyperlocomotion in WT rats; test: Amphetamine-induced hyperlocomotion; format: in vivo, rat; details: doses up to 100 mg/kg i.p.
CYP2D6 = CYP2D6 (Homo sapiens, UniProt P10635); test: Cytochrome P450 inhibition; format: in vitro ADME
Sequence of CYP2D6 (P10635 whole entry): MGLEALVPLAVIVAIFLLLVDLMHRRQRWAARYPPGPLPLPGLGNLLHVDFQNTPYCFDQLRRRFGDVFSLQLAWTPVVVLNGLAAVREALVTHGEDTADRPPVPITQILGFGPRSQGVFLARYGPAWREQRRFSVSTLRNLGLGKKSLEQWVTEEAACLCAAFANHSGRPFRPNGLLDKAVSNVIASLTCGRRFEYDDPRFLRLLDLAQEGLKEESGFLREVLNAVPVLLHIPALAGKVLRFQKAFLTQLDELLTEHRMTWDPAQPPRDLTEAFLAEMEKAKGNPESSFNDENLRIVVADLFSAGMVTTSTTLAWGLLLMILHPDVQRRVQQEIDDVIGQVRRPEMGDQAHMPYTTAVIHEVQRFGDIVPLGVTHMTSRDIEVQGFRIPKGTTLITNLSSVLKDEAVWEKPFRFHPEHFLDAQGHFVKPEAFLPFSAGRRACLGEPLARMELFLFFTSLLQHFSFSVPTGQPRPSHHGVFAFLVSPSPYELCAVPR

CYP2C9 = CYP2C9 (Homo sapiens, UniProt P11712); test: Cytochrome P450 inhibition; format: in vitro ADME
Sequence of CYP2C9 (P11712 whole entry): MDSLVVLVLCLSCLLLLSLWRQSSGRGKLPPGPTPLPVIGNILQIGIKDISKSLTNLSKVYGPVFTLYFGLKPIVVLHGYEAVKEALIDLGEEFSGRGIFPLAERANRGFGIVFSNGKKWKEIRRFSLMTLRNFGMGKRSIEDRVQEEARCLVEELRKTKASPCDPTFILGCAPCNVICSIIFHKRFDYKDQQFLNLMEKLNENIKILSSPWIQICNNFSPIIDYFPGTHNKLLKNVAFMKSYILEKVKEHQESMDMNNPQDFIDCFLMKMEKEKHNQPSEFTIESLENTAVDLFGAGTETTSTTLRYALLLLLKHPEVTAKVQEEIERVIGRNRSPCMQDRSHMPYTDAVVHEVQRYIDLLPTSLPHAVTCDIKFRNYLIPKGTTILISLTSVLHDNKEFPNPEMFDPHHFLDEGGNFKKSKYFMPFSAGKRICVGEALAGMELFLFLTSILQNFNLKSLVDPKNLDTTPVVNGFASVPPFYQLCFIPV

CYP3A4 = CYP3A4 (Homo sapiens, UniProt P08684); test: Cytochrome P450 inhibition; format: in vitro ADME
Sequence of CYP3A4 (P08684 whole entry): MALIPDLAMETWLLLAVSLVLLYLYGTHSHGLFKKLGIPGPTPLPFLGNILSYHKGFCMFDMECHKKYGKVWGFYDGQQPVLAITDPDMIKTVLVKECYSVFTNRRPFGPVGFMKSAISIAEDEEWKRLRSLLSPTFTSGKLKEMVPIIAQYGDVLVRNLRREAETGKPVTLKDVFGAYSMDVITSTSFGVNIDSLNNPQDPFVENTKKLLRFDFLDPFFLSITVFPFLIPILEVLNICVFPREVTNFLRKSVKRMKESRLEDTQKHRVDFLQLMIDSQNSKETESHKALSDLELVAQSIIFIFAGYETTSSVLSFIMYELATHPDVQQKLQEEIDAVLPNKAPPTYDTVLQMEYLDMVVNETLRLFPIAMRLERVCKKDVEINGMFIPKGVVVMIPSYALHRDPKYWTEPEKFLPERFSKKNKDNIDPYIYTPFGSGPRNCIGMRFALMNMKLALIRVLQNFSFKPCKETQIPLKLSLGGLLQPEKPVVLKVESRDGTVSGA

CYP1A2 = target: T2, CYP1A2 (Homo sapiens, UniProt P05177); test: Cytochrome P450 inhibition; format: in vitro ADME
T2 sequence (P05177 1-516): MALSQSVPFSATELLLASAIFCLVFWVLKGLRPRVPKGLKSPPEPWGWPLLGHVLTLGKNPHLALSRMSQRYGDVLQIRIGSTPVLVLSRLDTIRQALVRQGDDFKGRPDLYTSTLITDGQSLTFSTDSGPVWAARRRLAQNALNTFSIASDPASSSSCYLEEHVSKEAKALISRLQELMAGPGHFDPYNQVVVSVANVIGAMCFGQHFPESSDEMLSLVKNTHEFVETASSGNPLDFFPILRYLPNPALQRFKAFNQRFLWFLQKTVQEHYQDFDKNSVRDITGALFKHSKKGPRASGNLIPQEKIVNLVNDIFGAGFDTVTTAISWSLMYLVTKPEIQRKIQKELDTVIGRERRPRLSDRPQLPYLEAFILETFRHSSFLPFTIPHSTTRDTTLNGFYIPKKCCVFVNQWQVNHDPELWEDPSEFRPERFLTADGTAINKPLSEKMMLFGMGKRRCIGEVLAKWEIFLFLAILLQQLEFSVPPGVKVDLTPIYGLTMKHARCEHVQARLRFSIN

mGlu1 Sz mutants = test: Calcium mobilization in stable cell lines expressing schizophrenia; format: cell-based, human
mGlu1 K563N mutant = mGlu1 K563N mutant (Homo sapiens, UniProt Q13255, K563N); test: Calcium mobilization in stable Sz mutant cell line; format: cell-based; details: agonist DHPG
Sequence of mGlu1 K563N mutant (Q13255 19-1194 K563N): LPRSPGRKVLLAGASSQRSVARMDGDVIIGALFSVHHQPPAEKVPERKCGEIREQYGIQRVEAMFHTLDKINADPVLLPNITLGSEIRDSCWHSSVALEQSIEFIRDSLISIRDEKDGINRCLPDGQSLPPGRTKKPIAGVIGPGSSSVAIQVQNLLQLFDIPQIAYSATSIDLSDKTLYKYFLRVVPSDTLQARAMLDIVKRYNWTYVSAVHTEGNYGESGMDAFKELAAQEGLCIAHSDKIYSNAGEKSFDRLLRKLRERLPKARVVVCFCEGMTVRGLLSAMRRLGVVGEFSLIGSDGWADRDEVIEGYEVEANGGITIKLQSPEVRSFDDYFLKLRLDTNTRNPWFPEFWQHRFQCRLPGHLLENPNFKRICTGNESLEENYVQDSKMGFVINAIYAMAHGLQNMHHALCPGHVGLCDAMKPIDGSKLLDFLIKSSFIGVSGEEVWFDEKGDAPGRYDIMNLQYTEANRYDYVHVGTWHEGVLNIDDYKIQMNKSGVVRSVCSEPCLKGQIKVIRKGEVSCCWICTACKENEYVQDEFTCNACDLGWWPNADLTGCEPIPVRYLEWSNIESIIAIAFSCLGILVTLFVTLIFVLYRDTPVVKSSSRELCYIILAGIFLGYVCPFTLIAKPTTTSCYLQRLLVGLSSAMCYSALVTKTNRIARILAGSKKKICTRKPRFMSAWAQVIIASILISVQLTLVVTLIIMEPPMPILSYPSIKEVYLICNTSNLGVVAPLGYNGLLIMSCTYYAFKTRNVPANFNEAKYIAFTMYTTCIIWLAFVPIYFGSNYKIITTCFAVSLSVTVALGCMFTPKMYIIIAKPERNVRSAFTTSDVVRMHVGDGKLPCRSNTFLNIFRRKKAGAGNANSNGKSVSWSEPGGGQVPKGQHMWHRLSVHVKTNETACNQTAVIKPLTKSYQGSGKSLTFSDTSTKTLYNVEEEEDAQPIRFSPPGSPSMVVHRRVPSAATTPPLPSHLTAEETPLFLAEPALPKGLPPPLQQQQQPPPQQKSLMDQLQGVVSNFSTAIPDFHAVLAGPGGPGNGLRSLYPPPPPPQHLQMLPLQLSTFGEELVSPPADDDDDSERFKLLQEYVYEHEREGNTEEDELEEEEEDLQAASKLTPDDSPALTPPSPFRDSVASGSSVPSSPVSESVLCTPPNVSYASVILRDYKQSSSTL

mGlu1 P1015A mutant = mGlu1 P1015A mutant (Homo sapiens, UniProt Q13255, P1015A); test: Calcium mobilization in stable Sz mutant cell line; format: cell-based; details: agonist DHPG
Sequence of mGlu1 P1015A mutant (Q13255 19-1194 P1015A): as the sequence (Q13255 19-1194 K563N) above, with N545K, P997A counted along it

[4] = hmGlu1 EC50, calcium mobilization, average of n = 3 performed in triplicate

Sequence of hmGlu1 (Q13255 19-1194): as the sequence (Q13255 19-1194 K563N) above, with N545K counted along it
T1 sequence (Q13255 19-1194): as the sequence (Q13255 19-1194 K563N) above, with N545K counted along it
Sequence of hmGlu4 (Q14833 33-912): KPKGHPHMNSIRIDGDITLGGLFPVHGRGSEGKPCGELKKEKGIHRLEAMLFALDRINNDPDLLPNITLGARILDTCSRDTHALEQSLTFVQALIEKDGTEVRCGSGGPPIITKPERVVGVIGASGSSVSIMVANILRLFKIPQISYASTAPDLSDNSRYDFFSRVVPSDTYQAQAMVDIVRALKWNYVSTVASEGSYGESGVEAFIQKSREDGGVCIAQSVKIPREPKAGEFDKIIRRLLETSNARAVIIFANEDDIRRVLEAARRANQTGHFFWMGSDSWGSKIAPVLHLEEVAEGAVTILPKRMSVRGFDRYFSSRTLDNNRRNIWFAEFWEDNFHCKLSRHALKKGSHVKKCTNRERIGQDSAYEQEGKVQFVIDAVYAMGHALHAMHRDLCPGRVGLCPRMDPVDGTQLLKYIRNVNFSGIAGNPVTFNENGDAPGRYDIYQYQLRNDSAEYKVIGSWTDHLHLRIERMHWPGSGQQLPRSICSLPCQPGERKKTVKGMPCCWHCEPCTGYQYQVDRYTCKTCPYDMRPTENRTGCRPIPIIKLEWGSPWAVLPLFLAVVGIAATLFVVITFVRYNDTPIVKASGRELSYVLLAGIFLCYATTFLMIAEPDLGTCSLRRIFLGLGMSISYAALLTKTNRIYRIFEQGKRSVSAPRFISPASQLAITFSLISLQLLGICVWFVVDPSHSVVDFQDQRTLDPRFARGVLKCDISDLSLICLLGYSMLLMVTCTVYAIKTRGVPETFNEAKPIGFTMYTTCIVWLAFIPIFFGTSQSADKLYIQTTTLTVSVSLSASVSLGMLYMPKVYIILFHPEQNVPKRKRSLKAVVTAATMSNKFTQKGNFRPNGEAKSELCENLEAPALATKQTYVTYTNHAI

With `Cc1cccnc1C(=O)Nc1ccc(N2C(=O)c3cccc(C)c3C2=O)c(Cl)c1` [23a] the Emax (hmGlu1) was 101 ± 7% and the EC50 (hmGlu1; [4]) was 176 nM.

In the case of `Cc1ccc2c(c1)C(=O)N(c1ccc(NC(=O)c3ncccc3C)cc1Cl)C2=O` [23b], the Emax (hmGlu1) is reported as 130 ± 26% and the EC50 (hmGlu1; [4]) is reported as > 10000 nM.

For `Cc1cccnc1C(=O)Nc1ccc(N2C(=O)c3cccc(Cl)c3C2=O)c(Cl)c1` [23c], the EC50 (hmGlu4) was 199 nM, the “hmGlu4 % Glu Max” value (hmGlu4; calcium mobilization) was 55% and the “hmGlu1 % Glu Max (±SEM)” value (hmGlu1; calcium mobilization) was 126 ± 25%. The EC50 (hmGlu1; [4]) was 372 nM, the EC50 (hmGlu1; hmGlu1 EC50, text and Figure 6) was 370 nM and the “left-ward fold shift of the glutamate concentration response curve” value (mGlu1 WT receptor [1]) was ~3 fold. The “leftward fold shift of the DHPG concentration-response curve” value (mGlu1 WT receptor [2]; 10 μM PAM, WT mGlu1) was 3.4 fold and the “effect on amphetamine-induced hyperlocomotion” value [3] was “behaved similarly”.

In the case of `Cc1cccnc1C(=O)Nc1ccc(N2C(=O)c3cccc(F)c3C2=O)c(Cl)c1` [23e], the Emax (hmGlu1) is reported as 90 ± 15% and the EC50 (hmGlu1; [4]) is reported as 418 nM.

`Cc1cccnc1C(=O)Nc1ccc(N2C(=O)c3ccc(F)cc3C2=O)c(Cl)c1` [23f] was tested, and the EC50 (hmGlu1; [4]) was > 10000 nM.

`Cc1cccc2c1C(=O)N(c1ccc(NC(=O)c3ncccc3Cl)cc1Cl)C2=O` [24a] gave an Emax (hmGlu1) of 110 ± 21% and an EC50 (hmGlu1; [4]) of 177 nM.

`Cc1ccc2c(c1)C(=O)N(c1ccc(NC(=O)c3ncccc3Cl)cc1Cl)C2=O` [24b] was tested, and the Emax (hmGlu1) was 82 ± 4% and the EC50 (hmGlu1; [4]) was 832 nM.

With `O=C(Nc1ccc(N2C(=O)c3cccc(Cl)c3C2=O)c(Cl)c1)c1ncccc1Cl` [24c, N-(3-chloro-4-(4-chloro-1,3-dioxoisoindolin-2-yl)phenyl)-3-chloropicolinamide] the IC50 (CYP2D6) was > 30000 nM, the IC50 (CYP2C9) was > 30000 nM and the “hmGlu1 % Glu Max (±SEM)” value (hmGlu1; calcium mobilization) was 110 ± 15%. The EC50 (hmGlu1; [4]) was 391 nM, the EC50 (hmGlu1; hmGlu1 pEC50 (±SEM), calcium mobilization) was 389 nM and the IC50 (CYP3A4) was > 30000 nM. The IC50 (CYP1A2) was > 30000 nM and the “effect on amphetamine-induced hyperlocomotion” value [3] was “no effect up to the highest dose”.

With `O=C(Nc1ccc(N2C(=O)c3cccc(F)c3C2=O)c(Cl)c1)c1ncccc1Cl` [24e] the Emax (hmGlu1) was 117 ± 9% and the EC50 (hmGlu1; [4]) was 1140 nM.

For `N[C@H](C(=O)O)c1cc(O)cc(O)c1` [DHPG, (S)-3,5-dihydroxyphenylglycine], the “calcium response, % of WT response” value (mGlu1 Sz mutants; agonist DHPG, majority of mutants, typically) was 55–75%, the “calcium response, % of WT” value (mGlu1 K563N mutant) was ~110% and the “calcium response, % of WT response” value (mGlu1 P1015A mutant) was ~90%. The EC50 (mGlu1 WT receptor [2]) was 2500 nM.

In the case of `N[C@@H](CCC(=O)O)C(=O)O` [glutamate, L-glutamic acid], the “calcium response, % of the WT response” value (mGlu1 Sz mutants; agonist glutamate, mutants typically, except K563N and P1015A) is reported as 45–65%.
